Laboratory results from patent publication EP2125023B1, “SOLUBLE FORMS OF INCLUSION COMPLEXES OF HISTONE DEACETYLASE INHIBITORS AND CYCLODEXTRINS, THEIR PREPARATION PROCESSES AND USES IN THE PHARMACEUTICAL FIELD” (Universita'Degli Studi di Roma "La Sapienza", priority 2007, dated 2008).

Assay: Solubility tests on SAHA in aqueous HPβCD solutions by UV spectrophotometry
Assay type: physicochemical
Settings: for Concentration: dissolved SAHA in the filtered solution brought to 10 ml, by Lambert and Beer's law with mean ε; for Assorbance (AU): water, one week stirring at room temperature, filtered, brought to 10 ml, read at 240 nm
Description: Five aqueous solutions of SAHA in cyclodextrin were prepared, maintaining a constant amount of drug and gradually increasing the cyclodextrin concentraion.
Two mg of SAHA (0.0075 mmol) are weighed in five assay tubes and to each is added 1 ml of a solution of 2-hydroxypropyl-β-cyclodextrin (HPβCD) in double-distilled water; we started with a molar ratio of 1:1 corresponding to 0.0116 g of cyclodextrin, proceeding then with molar ratios of 1:2 corresponding to 0.0232 g, 1:3 corresponding to 0.035 g, 1:4 corresponding to 0.046, up to a final ratio of 1:5, corresponding to 0.058 g of cyclodextrin.
The tubes thus prepared and well sealed are left for one week under stirring in a mechanical stirrer at room temperature.
At the end of this period, the solutions are filtered with a 0.5 µm diameter membrane filter in five 10 ml round-bottomed flasks brought to volume with double-distilled water, and the spectrophotometric readings are taken at 240 nm.
From the mean value of ε calculated previously, and using Lambert and Beer's law, the millimolar concentrations of the five solutions can be calculated, as shown in the table.

Compound: O=C(CCCCCCC(=O)Nc1ccccc1)NO [SAHA, suberoylanilide hydroxamic acid]
- Concentration (SAHA:HPβCD molar ratio 1:1): 126 µM
- Assorbance (AU) (SAHA:HPβCD molar ratio 1:1): 1.6862 AU
- Concentration (SAHA:HPβCD molar ratio 1:2): 191 µM
- Assorbance (AU) (SAHA:HPβCD molar ratio 1:2): 2,5591 AU
- Concentration (SAHA:HPβCD molar ratio 1:3): 196 µM
- Assorbance (AU) (SAHA:HPβCD molar ratio 1:3): 2.6196 AU
- Concentration (SAHA:HPβCD molar ratio 1:4): 207 µM
- Assorbance (AU) (SAHA:HPβCD molar ratio 1:4): 2.7752 AU
- Concentration (SAHA:HPβCD molar ratio 1:5): 216 µM
- Assorbance (AU) (SAHA:HPβCD molar ratio 1:5): 2.8932 AU
